Laboratory results from ChEMBL document CHEMBL4376898, “Enhanced Activity against Multidrug-Resistant Bacteria through Coapplication of an Analogue of Tachyplesin I and an Inhibitor of the QseC/B Signaling Pathway” (J Med Chem, 2020).
Activity calls are given as the source filed them.

Tests used:
Lysobacter enzymogenes [1] = test: Germicidal activity against Lysobacter enzymogenes YC36 at 5 to 10 pM; assay type: functional
Klebsiella pneumoniae [2] = test: Antimicrobial activity against Klebsiella pneumoniae BAA 2470 assessed as inhibition of visible growth incubated for 18 hrs; assay type: functional; settings: BAA 2470, 18 h
Escherichia coli [3] = test: Antimicrobial activity against Escherichia coli K-12 assessed as inhibition of visible growth incubated for 18 hrs; assay type: functional; settings: K-12, 18 h
Escherichia coli [4] = test: Antimicrobial activity against Escherichia coli BAA 2469 assessed as inhibition of visible growth incubated for 18 hrs; assay type: functional; settings: BAA 2469, 18 h
Enterobacter cloacae = test: Antimicrobial activity against Enterobacter cloacae BAA 1143 assessed as inhibition of visible growth incubated for 18 hrs; assay type: functional; settings: BAA 1143, 18 h
Staphylococcus aureus [5] = test: Antimicrobial activity against Staphylococcus aureus BAA 44 assessed as inhibition of visible growth incubated for 18 hrs; assay type: functional; settings: BAA 44, 18 h
Staphylococcus aureus [6] = test: Antimicrobial activity against Staphylococcus aureus BAA 41 assessed as inhibition of visible growth incubated for 18 hrs; assay type: functional; settings: BAA 41, 18 h
[7] = Antimicrobial activity against Lysobacter enzymogenes YC36 assessed as inhibition of visible growth measured after 7th generation exposure to compound by continuous repeated transfer assay (reference value: 4 ug/ml); assay type: functional
[8] = Bactericidal activity against Lysobacter enzymogenes YC36 with delta qseC mutant assessed as killing of bacterial cells at 2 ug/ml relative to control; assay type: functional
Klebsiella pneumoniae [9] = test: Antimicrobial activity against Klebsiella pneumoniae BAA 1144 assessed as inhibition of visible growth incubated for 18 hrs; assay type: functional; settings: BAA 1144, 18 h
[10] = Antimicrobial activity against Lysobacter enzymogenes YC36 assessed as inhibition of visible growth measured after 7th generation exposure to compound by continuous repeated transfer assay (reference value: 8 ug/ml); assay type: functional
[11] = Bactericidal activity against Lysobacter enzymogenes YC36; assay type: functional
Escherichia coli [12] = test: Bactericidal activity against Escherichia coli K-12; assay type: functional
[13] = Bactericidal activity against Lysobacter enzymogenes YC36 with delta qseB mutant assessed as killing of bacterial cells at 2 ug/ml relative to control; assay type: functional
[14] = Antimicrobial activity against Lysobacter enzymogenes YC36 assessed as inhibition of visible growth measured after 7th generation exposure to compound by continuous repeated transfer assay relative to before passage; assay type: functional
Shigella flexneri = test: Bactericidal activity against Shigella flexneri ATCC 29903; assay type: functional
Pseudomonas aeruginosa [15] = test: Antimicrobial activity against Pseudomonas aeruginosa ATCC 27853 assessed as inhibition of visible growth incubated for 18 hrs; assay type: functional; settings: ATCC 27853, 18 h
Pseudomonas aeruginosa [16] = test: Bactericidal activity against Pseudomonas aeruginosa ATCC 27853; assay type: functional
Acinetobacter baumannii [17] = test: Bactericidal activity against Acinetobacter baumannii ATCC 19606; assay type: functional; settings: ATCC 19606 = CIP 70.34 = JCM 6841
Pseudomonas aeruginosa [18] = test: Antimicrobial activity against Pseudomonas aeruginosa BAA 2108 assessed as inhibition of visible growth incubated for 18 hrs; assay type: functional; settings: BAA 2108, 18 h
Acinetobacter baumannii [19] = test: Antimicrobial activity against Acinetobacter baumannii ATCC 19606 assessed as inhibition of visible growth incubated for 18 hrs; assay type: functional; settings: ATCC 19606 = CIP 70.34 = JCM 6841, 18 h
Bacillus subtilis [20] = test: Antimicrobial activity against Bacillus subtilis 168 assessed as inhibition of visible growth incubated for 18 hrs; assay type: functional; settings: Bacillus subtilis, 168, 18 h
Bacillus subtilis [21] = test: Bactericidal activity against Bacillus subtilis 168; assay type: functional
Enterococcus faecium [22] = test: Antimicrobial activity against Enterococcus […] ATCC 29212 assessed as inhibition of visible growth incubated for 18 hrs; assay type: functional; settings: ATCC 29212, 18 h
Staphylococcus aureus [23] = test: Bactericidal activity against Staphylococcus aureus ATCC 29213; assay type: functional
Escherichia coli [24] = test: Antimicrobial activity against Escherichia coli ATCC 25923 assessed as inhibition of visible growth incubated for 18 hrs; assay type: functional; settings: ATCC 25923, 18 h
Enterococcus faecium [25] = test: Bactericidal activity against Enterococcus […] ATCC 29212; assay type: functional
Staphylococcus aureus [26] = test: Antimicrobial activity against Staphylococcus aureus ATCC 29213 assessed as inhibition of visible growth incubated for 18 hrs; assay type: functional; settings: ATCC 29213, 18 h
Lipid bilayer = test: Induction of membrane lysis in LUVs composed of Escherichia coli lipid extract filled with 5-carboxyfluorescein incubated in dark for 20 mins by fluorescence based assay
Lysobacter enzymogenes [27] = test: Induction of bacterial cell membrane leakage in Lysobacter enzymogenes YC36 assessed as induction of serious depressions with leakage of intracellular contents surrounding bacteria by atomic force microscopy; assay type: functional, cell-based
Lysobacter enzymogenes [28] = test: Induction of drug efflux pumps gene expression in Lysobacter enzymogenes YC36 assessed as increase in czcB expression at 2 ug/ml by genome-wide transcription profiling assay; assay type: functional
Lysobacter enzymogenes [29] = test: Bactericidal activity against Lysobacter enzymogenes YC36 at 2 ug/ml in presence of 5 pM QseC inhibitor LED209; assay type: functional
Lysobacter enzymogenes [30] = test: Bactericidal activity against Lysobacter enzymogenes YC36 at 10 ug/ml; assay type: functional
Lysobacter enzymogenes [31] = test: Antimicrobial activity against Lysobacter enzymogenes YC36 assessed as inhibition of visible growth incubated for 18 hrs; assay type: functional
[32] = tested on: Stenotrophomonas maltophilia; test: Bactericidal activity against Stenotrophomonas maltophilia at 2 ug/ml in presence of 5 pM QseC inhibitor LED209; assay type: functional, organism-based
[33] = tested on: Pseudoalteromonas antarctica; test: Bactericidal activity against Pseudoalteromonas antarctica at 2 ug/ml in presence of 5 pM QseC inhibitor LED209; assay type: functional, organism-based
Lysobacter enzymogenes [34] = test: Induction of drug efflux pumps gene expression in Lysobacter enzymogenes YC36 assessed as increase in QseB expression at 2 ug/ml by genome-wide transcription profiling assay; assay type: functional
Lysobacter enzymogenes [35] = test: Bactericidal activity against Lysobacter enzymogenes YC36 at 4 ug/ml; assay type: functional
Lysobacter enzymogenes [36] = test: Induction of drug efflux pumps gene expression in Lysobacter enzymogenes YC36 assessed as increase in QseC expression at 2 ug/ml by genome-wide transcription profiling assay; assay type: functional
Lysobacter enzymogenes [37] = test: Induction of drug efflux pumps gene expression in Lysobacter enzymogenes YC36 assessed as increase in nodT expression at 2 ug/ml by genome-wide transcription profiling assay; assay type: functional
Lysobacter enzymogenes [38] = test: Bactericidal activity against Lysobacter enzymogenes YC36 with delta qseB mutant; assay type: functional
Lysobacter enzymogenes [39] = test: Induction of drug efflux pumps gene expression in Lysobacter enzymogenes YC36 assessed as increase in ftsX expression at 2 ug/ml by genome-wide transcription profiling assay; assay type: functional
Lysobacter enzymogenes [40] = test: Induction of drug efflux pumps gene expression in Lysobacter enzymogenes YC36 assessed as increase in yceL expression at 2 ug/ml by genome-wide transcription profiling assay; assay type: functional
Lysobacter enzymogenes [41] = test: Induction of drug efflux pumps gene expression in Lysobacter enzymogenes YC36 with delta qseB mutant at 2 ug/ml by genome-wide transcription profiling assay; assay type: functional
Lysobacter enzymogenes [42] = test: Bactericidal activity against Lysobacter enzymogenes YC36 with delta qseC mutant; assay type: functional

O=S(=O)(Nc1ccccc1)c1ccc(NC(=S)Nc2ccccc2)cc1
inactive: Activity (Lysobacter enzymogenes [1])

CC[C@@H](C)[C@H]1NC(=O)CNC(=O)[C@@H](CCCNC(=N)N)NC(=O)[C@@H](Cc2ccc(O)cc2)NC(=O)[C@H]2CSSC[C@@H](NC1=O)C(=O)N[C@H](Cc1ccc(O)cc1)C(=O)N[C@H](CCCNC(=N)N)C(=O)N[C@H](CCCNC(=N)N)C(=O)N[C@@H](C(=O)N[C@H](CCCNC(=N)N)C(N)=O)CSSC[C@@H](NC(=O)[C@@H](Cc1c[nH]c3ccccc13)NC(=O)[C@H](N)CCCCN)C(=O)N[C@H](Cc1ccccc1)C(=O)N[C@H](CCCNC(=N)N)C(=O)N[C@H](C(C)C)C(=O)N2
<=100%: Activity [8] | Activity [13]
4: fold change (FC) [14]
8 µg/mL: MIC (Escherichia coli [3]) | MIC (Escherichia coli [4]) | MIC (Enterobacter cloacae) | MIC (Pseudomonas aeruginosa [18]) | MIC (Acinetobacter baumannii [19]) | MIC (Escherichia coli [24]) | MIC (Staphylococcus aureus [26])
16 µg/mL: MIC (Klebsiella pneumoniae [2]) | MIC [7] | MIC (Klebsiella pneumoniae [9]) | MIC [10]
8 to 16 µg/mL: MIC (Pseudomonas aeruginosa [15])
4 µg/mL: MIC (Staphylococcus aureus [5]) | MIC (Staphylococcus aureus [6]) | MIC (Bacillus subtilis [20]) | MIC (Enterococcus faecium [22])
16 to 64 µg/mL: MBC [11] | MBC (Escherichia coli [12]) | MBC (Shigella flexneri) | MBC (Pseudomonas aeruginosa [16]) | MBC (Acinetobacter baumannii [17]) | MBC (Bacillus subtilis [21]) | MBC (Staphylococcus aureus [23]) | MBC (Enterococcus faecium [25])

CC[C@H](C)[C@H]1NC(=O)CNC(=O)[C@@H](CCCNC(=N)N)NC(=O)[C@@H](Cc2ccc(O)cc2)NC(=O)[C@H]2CSSC[C@@H](NC1=O)C(=O)N[C@H](Cc1ccc(O)cc1)C(=O)N[C@H](CCCNC(=N)N)C(=O)N[C@H](CCCNC(=N)N)C(=O)N[C@@H](C(=O)N[C@H](CCCNC(=N)N)C(N)=O)CSSC[C@@H](NC(=O)[C@@H](Cc1c[nH]c3ccccc13)NC(=O)[C@H](N)CCCCN)C(=O)N[C@H](Cc1ccccc1)C(=O)N[C@H](CCCNC(=N)N)C(=O)N[C@H](C(C)C)C(=O)N2
active: Activity (Lipid bilayer) Dose-dependent effect | Activity (Lysobacter enzymogenes [27]) | Activity (Lysobacter enzymogenes [28]) | Activity (Lysobacter enzymogenes [29]) | Activity (Lysobacter enzymogenes [31]) Dose-dependent effect | Activity [32] | Activity [33] | Activity (Lysobacter enzymogenes [34]) | Activity (Lysobacter enzymogenes [35]) | Activity (Lysobacter enzymogenes [36]) | Activity (Lysobacter enzymogenes [37]) | Activity (Lysobacter enzymogenes [38]) | Activity (Lysobacter enzymogenes [39]) | Activity (Lysobacter enzymogenes [40]) | Activity (Lysobacter enzymogenes [42])
inactive: Activity (Lysobacter enzymogenes [30]) | Activity (Lysobacter enzymogenes [41])
